Experimental data published in patent US6369222B1, “mGluR antagonists and a method for their synthesis” (Hoffmann-La Roche Inc., priority 2000, dated 2002).

Key:
[1] = molecular target: T1, rat mGluR1a receptor (Rattus norvegicus, UniProt P23385); assay: Binding assay for the characterization of mGluR 1 antagonistic properties (displacement of tritiated 1-ethyl-2-methyl-6-oxo-4-(1,1,2-tritritio-1,2,4,5-tetrahydro-benzo[d]azepin-3-yl)-1,6-dihydro-pyrimidine-5-carbonitrile); details: membranes of HEK 293 cells transiently transfected with rat mGluR1a, 10 μg protein per assay; radioligand 3 nM; 1 hour at room temperature; read-out: B-IC50
T1 construct: expressed in transfected cells; host or cells: HEK 293 cells, transient transfection; membranes used
Protocol: Binding Assay for the Characterization of mGluR 1 Antagonistic Properties
Binding assay with tritiated 1-ethyl-2-methyl-6-oxo-4-(1,1,2-tritritio-1,2,4,5-tetrahydro-benzo[d]azepin-3-yl)-1,6-dihydro-pyrimidine-5-carbonitrile: HEK 293 cells were transiently transfected with the rat mGluR1a receptor. The cells were collected and washed 3 times with PBS. The cell pellets were frozen at −80° C. Membranes were prepared from HEK 293 cells transfected with the rat mGluR1a receptor and used in the binding experiments at 10 μg proteins per assay after resuspension in a HEPES NaOH 20 mM, pH=7.4 binding buffer. 1-Ethyl-2-methyl-6-oxo-4-(1,1,2-tritritio-1,2,4,5-tetrahydro-benzo[d]azepin-3-yl)-1,6-dihydro-pyrimidine-5-carbonitrile (S.A. 33.4 Ci/mmol) was used at 3 nM final concentration. The incubation with variable concentrations of potential inhibitors was performed for 1 hour at room temperature, the incubate was then filtered onto GF/B glass fiber filter preincubated 1 hour in PEI 0,1% and washed 3 times with 1 ml of cold binding buffer. The radioactivity retained on the unifilter 96 was counted using a Topcount β counter. After correction for non specific binding the data were normalized and the IC50 value calculated using a 4 parameters logistic equation which was fitted to the inhibition curve.

T1 sequence (P23385 19-1199): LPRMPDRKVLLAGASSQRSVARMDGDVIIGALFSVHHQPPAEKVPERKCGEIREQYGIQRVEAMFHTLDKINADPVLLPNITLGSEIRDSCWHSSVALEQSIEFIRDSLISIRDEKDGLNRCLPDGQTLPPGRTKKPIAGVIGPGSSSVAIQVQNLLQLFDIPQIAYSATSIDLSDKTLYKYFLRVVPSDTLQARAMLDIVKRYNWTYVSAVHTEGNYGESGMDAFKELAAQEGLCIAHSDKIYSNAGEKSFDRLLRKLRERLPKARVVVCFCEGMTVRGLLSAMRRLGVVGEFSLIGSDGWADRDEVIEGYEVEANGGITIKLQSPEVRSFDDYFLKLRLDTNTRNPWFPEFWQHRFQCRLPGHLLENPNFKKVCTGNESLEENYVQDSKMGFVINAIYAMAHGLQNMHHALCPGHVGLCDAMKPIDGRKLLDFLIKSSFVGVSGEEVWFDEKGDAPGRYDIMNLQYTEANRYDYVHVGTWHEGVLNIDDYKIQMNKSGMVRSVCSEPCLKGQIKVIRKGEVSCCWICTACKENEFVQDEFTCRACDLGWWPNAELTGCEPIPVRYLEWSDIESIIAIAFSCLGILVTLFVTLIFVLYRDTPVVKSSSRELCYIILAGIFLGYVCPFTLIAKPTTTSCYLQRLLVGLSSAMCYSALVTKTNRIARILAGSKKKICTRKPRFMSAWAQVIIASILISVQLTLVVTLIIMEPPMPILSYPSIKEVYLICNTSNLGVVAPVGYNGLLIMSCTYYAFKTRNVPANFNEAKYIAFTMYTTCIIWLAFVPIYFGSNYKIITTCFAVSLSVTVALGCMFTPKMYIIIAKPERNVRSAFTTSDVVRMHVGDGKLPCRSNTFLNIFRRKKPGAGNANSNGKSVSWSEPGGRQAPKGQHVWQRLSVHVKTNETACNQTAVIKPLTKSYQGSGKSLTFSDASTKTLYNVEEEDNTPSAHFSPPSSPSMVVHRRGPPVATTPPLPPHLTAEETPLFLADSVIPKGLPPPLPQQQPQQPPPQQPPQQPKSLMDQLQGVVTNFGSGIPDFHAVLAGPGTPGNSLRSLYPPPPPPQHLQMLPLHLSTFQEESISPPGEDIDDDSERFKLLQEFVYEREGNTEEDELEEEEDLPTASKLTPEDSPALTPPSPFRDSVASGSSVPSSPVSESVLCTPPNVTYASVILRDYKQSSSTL

Structure (SMILES)	melting point [°C]	IC50 [1] [µM]
Cc1nc(N2CCc3nc(C)sc3CC2)c([N+](=O)[O-])c(=O)[nH]1 [Example 1, 2-methyl-6-(2-methyl-4,5,7,8-tetrahydro-thiazolo[4,5-d]azepin-6-yl)-5-nitro-3H-pyrimidin-4-one]	> 200	30
Cc1nc(N2CCc3nc(N)sc3CC2)c([N+](=O)[O-])c(=O)[nH]1 [Example 3, 6-(2-Amino-4,5,7,8-tetrahydro-thiazolo[4,5-d]azepin-6-yl)-2-methyl-5-nitro-3H-pyrimidin-4-one]	> 200	49
Cc1nc(N2CCc3ncsc3CC2)c([N+](=O)[O-])c(=O)[nH]1 [Example 6, 2-Methyl-5-nitro-6-(4,5,7,8-tetrahydro-thiazolo[4,5-d]azepin-6-yl)-3H-pyrimidin-4-one]	–	43
Cc1nc(N2CCc3ccsc3CC2)c([N+](=O)[O-])c(=O)[nH]1 [Example 9, 2-Methyl-5-nitro-6-(4,5,7,8-tetrahydro-thieno[2,3-d]azepin-6-yl)-3H-pyrimidin-4-one]	> 200	1.9
Cc1nc(O)c([N+](=O)[O-])c(N2CCc3cncnc3CC2)n1 [Example 7, 2-Methyl-5-nitro-6-(5,6,8,9-tetrahydro-pyrimido[4,5-d]azepin-7-yl)-pyrimidin-4-ol]	> 200	–
CCn1c(C)nc(N2CCc3nc(N)sc3CC2)c([N+](=O)[O-])c1=O [Example 4, 6-(2-Amino-4,5,7,8-tetrahydro-thiazolo[4,5-d]azepin-6-yl)-3-ethyl-2-methyl-5-nitro-3H-pyrimidin-4-one]	> 200	6
CCn1c(C)nc(N2CCc3nc(C)sc3CC2)c([N+](=O)[O-])c1=O [Example 2, 3-Ethyl-2-methyl-6-(2-methyl-4,5,7,8-tetrahydro-thiazolo[4,5-d]azepin-6-yl)-5-nitro-3H-pyrimidin-4-one]	164.2 to 166.8	–
Cc1nc(O)c2c(n1)CCN(c1nc(C)nc(O)c1[N+](=O)[O-])CC2 [Example 5, 7-(6-Hydroxy-2-methyl-5-nitro-pyrimidin-4-yl)-2-methyl-6,7,8,9-tetrahydro-5H-pyrimido[4,5-d]azepin-4-ol]	> 200	–
